This assay relates to mice. As to the kind of experiment: pentobarbital-induced sleep test in mice (sleep latency and total sleeping time). Format: in vivo. As to conditions: 30 minutes before pentobarbital 45 mg/kg i.p. The method, then:
A sleep disorder refers to syndromes in which one cannot fall asleep well and the total sleeping time is short. In order to confirm the effect of improving the sleep quality of beta-lapachone, mice were purchased from Orient Bio Co. Beta-lapachone (Sigma Aldrich) was administered once intraperitoneally or orally to mice at a dose of 0.03, 0.1, 0.3, or 1 mg/kg by concentration, respectively, 30 minutes before induction of sleep, and 0.9% physiological saline was administered to the control mice, and 1 mg/kg of diazepam (MYUNG IN Pharm. Co.), most popular used sleeping pill, was administered intraperitoneally or orally to the positive control mice. 45 mg/kg of pentobarbital ([…] Pharm. Co., Ltd.), a commercially used sedative and sleeping pill, was intraperitoneally administered to mice to induce sleeping after 30 minutes of the above administration.

The record followed here is patent US11278515B2, “Composition for improvement of sleep or for prevention or treatment of sleep disorders, containing beta-lapachone” (AJOU UNIVERSITY INDUSTRY-ACADEMIC COOPERATION FOUNDATION, priority 2016, dated 2022).

Consider `CC1(C)CCC2=C(O1)c1ccccc1C(=O)C2=O` [beta-lapachone], for which the sleep latency entry is, setting by setting: (single intraperitoneal administration at 0.03, 0.1, 0.3 or 1 mg/kg, FIG. 1) “shortened in a concentration-dependent manner”; (single oral administration at 0.03, 0.1, 0.3 or 1 mg/kg, FIG. 3) “shortened in a concentration-dependent manner”. The total sleeping time entry (single intraperitoneal administration at 0.03, 0.1, 0.3 or 1 mg/kg, FIG. 2) is on record as “increased in a concentration-dependent manner” and the total sleeping time result (single oral administration at 0.03, 0.1, 0.3 or 1 mg/kg, FIG. 4) was “increased in a concentration-dependent manner”.
